The source of these data is US20250144030A1, “OSMOTIC PUMP CONTROLLED-RELEASE TABLET OF INSOLUBLE DRUG AND PREPARATION METHOD THEREFOR” (BEIJING WEHAND-BIO PHARMACEUTICAL CO., LTD, priority 2021, published 2025).

Counter-ions that a name gives are not always drawn. Like-named read-outs stand apart in the source and are kept apart here.

The data set can be described thus: Determination of solubility of Nic drug and solid dispersions. Type of data set: physicochemical. As to conditions: for solubility at 2 h: 37 °C, thermodynamic from solid. Here is the method: After the drug was dissolved, an equivalent dose of the solid dispersion powder was further added, and oscillated for 2 h. The above operations were repeated until an insoluble solid occurred in the solution.

As to `COC(=O)C1=C(C)NC(C)=C(C(=O)OCCN(C)Cc2ccccc2)C1c1cccc([N+](=O)[O-])c1` (stereo not drawn) [α-Form Nic, nicardipine hydrochloride], the solubility at 2 h runs as follows: (saturated citric acid solution, aqueous buffer, saturated citric acid solution, read-out: Solubility of Saturated Citric Acid Solution mg/ml (37° C.)) 46 mg/mL; (water, water, water, read-out: Solubility in Water mg/ml (37° C.)) 7.2 mg/mL.

Consider `COC(=O)C1=C(C)NC(C)=C(C(=O)OCCN(C)Cc2ccccc2)C1c1cccc([N+](=O)[O-])c1` (stereo not drawn) [β-Form Nic, nicardipine hydrochloride], for which the “Solubility of Saturated Citric Acid Solution mg/ml (37° C.)” value (saturated citric acid solution, hydrochloride) came out at 50 mg/mL. The “Solubility in Water mg/ml (37° C.)” value (water, hydrochloride) was 11 mg/mL.
